Results from patent US7635696B2, “Isoxazoline-indole derivatives with an improved antipsychotic and anxiolytic activity” (Janssen Pharmaceutica N.V., priority 2004, dated 2009).

Experiments:
human 5HT transporter = molecular target: T1, human 5HT transporter (Homo sapiens, UniProt P31645); test: Binding experiment for 5-HT transporter ([3H]Paroxetine); conditions: transfected HEK cell membranes, [3H]Paroxetine; for IC50: read-out: pIC50 5HTT (converted)
T1 construct: host or cells: HEK cells
Description: (§1) The interaction of the compounds of Formula (I) with dopamine-receptors, h5HT-transporter and h5HT1A receptor was assessed in in vitro radioligand binding experiments. In general, a low concentration of a radioligand with a high binding affinity for a particular receptor or transporter is incubated with a sample of a tissue preparation enriched in a particular receptor or transporter or with a preparation of cells expressing cloned human receptors in a buffered medium. During the incubation, the radioligand binds to the receptor or transporter. When equilibrium of binding is reached, the receptor bound radioactivity is separated from the non-bound radioactivity, and the receptor- or transporter-bound activity is counted. The interaction of the test compounds with the receptor is assessed in competition binding experiments. Various concentrations of the test compound are added to the incubation mixture containing the receptor- or transporter preparation and the radioligand. The test compound in proportion to its binding affinity and its concentration inhibits binding of the radioligand.
Frozen human 5HT transporter-transfected HEK cells (Perkin Elmer, Brussels) were thawed and briefly homogenised using an Ultra-Turrax T25 homogeniser prior to dilution to an appropriate protein concentration optimised for specific and non-specific binding. [^3H]Paroxetine (NEN, specific activity 20 Ci/mmol) was diluted in Tris-HCl assay buffer containing NaCl and KCl (50 mM, 120 mM and 5 mM, respectively; pH 7.4) at a concentration of 5 nmol/L. Prepared radioligand (25 μl) was then incubated (60 min, 25° C.) with membrane preparations (200 μl) and with 25 μl of either 10% DMSO control, Inipramine (10^−6 mol/L final concentration), or compound of interest. Membrane-bound activity was detected by filtration through a Packard Filtermate harvester onto Unifilterplates pre-soaked in 0.1% PEI, washing with ice-cold assay buffer (3×4 ml). Filters were dried prior to addition of scintillation fluid and then counting in a Topcount scintillation counter. % Specific bound and competition binding curves were calculated using S-Plus software (Insightful).

[1] = molecular target: T2, Human Dopamine D3 receptor (Homo sapiens, UniProt P35462); test: Binding experiment for dopamine D3 receptor ([125I]Iodosulpride); conditions: transfected CHO cell membranes; for IC50: read-out: pIC50 D3 (converted)
T2 construct: expressed in transfected cells; host or cells: CHO cells
Description: as §1
Human Dopamine D3 receptor-transfected CHO cells were collected by scraping into ice-cold Tris-HCl buffer (50 mM, pH 7.4). The suspension was centrifuged (23 500×g, 10 min, 4° C.) and pellets stored at −70° C. until required. They were then thawed and briefly homogenised using an Ultra-Turrax T25 homogeniser prior to dilution to an appropriate protein concentration optimised for specific and non-specific binding. [^125I]Iodosulpride (Amersham, specific activity 2000 Ci/mmol) was diluted in Tris-HCl assay buffer containing NaCl, CaCl2, MgCl2, KCl and BSA (50, 120, 2, 1, 5 mM, 0.1% respectively, adjusted to pH 7.7 with HCl) at a concentration of 2 nmol/L. Prepared radioligand (20 μl) was incubated (60 min, RT) and with 20 μl of either the 10% DMSO control, Risperidone (10^−6 mol/L final concentration), or compound of interest, then with membrane preparations (80 μl). Overnight incubation followed after addition of WGA-coated PVT SPA beads (250 μl; Amersham) and membrane-bound counts measured in a Wallac Microbeta. % Specific bound and competition binding curves were calculated using S-Plus software (Insightful).

[2] = molecular target: T3, Human Dopamine D2L receptor (Homo sapiens, UniProt P14416); test: Binding experiment for dopamine D2 receptor ([3H]Spiperone); conditions: D2L-transfected CHO cell membranes; for IC50: read-out: pIC50 D2 (converted)
T3 construct: expressed in transfected cells; host or cells: CHO cells
Description: as §1
Human Dopamine D2L receptor-transfected CHO cells were collected by scraping into ice-cold Tris-HCl buffer (50 mM, pH 7.4). The suspension was centrifuged (23 500×g, 10 min, 4° C.) and pellets stored at −70° C. until required. They were then thawed and briefly homogenised using an Ultra-Turrax T25 homogeniser prior to dilution to an appropriate protein concentration optimised for specific and non-specific binding. [^3H]Spiperone (NEN, specific activity ˜70 Ci/mmol) was diluted in Tris-HCl assay buffer containing NaCl, CaCl2, MgCl2, KCl (50, 120, 2, 1, and 5 mM respectively, adjusted to pH 7.7 with HCl) at a concentration of 2 nmol/L. Prepared radioligand (50 μl) was then incubated (30 min, 37° C.) with membrane preparations pre-diluted to an appropriate protein concentration (400 μl), and with 50 μl of either the 10% DMSO control, Butaclamol (10^−6 mol/L final concentration), or compound of interest. Membrane-bound activity was detected by filtration through a Packard Filtermate harvester onto Unifilterplates, washing with ice-cold Tris-HCl buffer (50 mM; pH8.0; 3×4 ml). Filters were allowed to dry before adding scintillation fluid and counting in a Topcount scintillation counter. % Specific bound and competition binding curves were calculated using S-Plus software (Insightful).

Human 5HT1A receptor = molecular target: T4, Human 5HT1A receptor (Homo sapiens, UniProt P08908); test: Binding experiment for 5-HT1A receptor ([3H]8OHDPAT); conditions: transfected L929 cell membranes, [3H]8OHDPAT; for IC50: read-out: pIC50 5-HT1A (converted)
T4 construct: expressed in transfected cells; host or cells: L929 cells (stably transfected)
T4 sequence (P08908 1-422): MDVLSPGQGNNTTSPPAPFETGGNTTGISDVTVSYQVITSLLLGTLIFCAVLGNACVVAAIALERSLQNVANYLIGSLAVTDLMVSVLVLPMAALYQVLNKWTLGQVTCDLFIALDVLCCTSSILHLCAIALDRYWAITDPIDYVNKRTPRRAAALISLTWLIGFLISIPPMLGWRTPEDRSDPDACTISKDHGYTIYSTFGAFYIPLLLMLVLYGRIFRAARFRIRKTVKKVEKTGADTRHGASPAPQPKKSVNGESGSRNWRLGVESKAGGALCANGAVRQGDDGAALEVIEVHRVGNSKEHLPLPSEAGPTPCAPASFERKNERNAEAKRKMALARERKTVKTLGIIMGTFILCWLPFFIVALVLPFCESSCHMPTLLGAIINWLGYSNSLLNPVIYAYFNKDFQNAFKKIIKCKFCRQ
Description: as §1
Human 5HT1A receptor-transfected L929 cells were collected by scraping into ice-cold Tris-HCl buffer (50 mM, pH 7.4). The suspension was centrifuged (23 500×g, 10 min, 4° C.) and pellets stored at −70° C. until required. They were then thawed and briefly homogenised using an Ultra-Turrax T25 homogeniser prior to dilution to an appropriate protein concentration optimised for specific and non-specific binding. [^3H]80HDPAT (NEN, specific activity 127 Ci/mmol) was diluted in Tris-HCl assay buffer containing CaCl2 (50 mM and 4 mM, respectively; pH 7.7) at a concentration of 5 nmol/L. Prepared radioligand (50 μl) was then incubated (30 min, 37° C.) with membrane preparations from L929 cells stably-transfected with the h5HT1A gene construct (400 μl) and with 50 μl of either the 10% DMSO control, spiroxatrine (10^−6 mol/L final concentration), or compound of interest. Membrane-bound activity was detected by filtration through a Packard Filtermate harvester onto Unifilterplates, washing with ice-cold Tris-HCl buffer (3×4 ml), followed by drying. Scintillation fluid was added and membranes were counted in a Topcount scintillation counter. % Specific bound and competition binding curves were calculated using S-Plus software (Insightful).

T2 sequence (P35462 whole entry): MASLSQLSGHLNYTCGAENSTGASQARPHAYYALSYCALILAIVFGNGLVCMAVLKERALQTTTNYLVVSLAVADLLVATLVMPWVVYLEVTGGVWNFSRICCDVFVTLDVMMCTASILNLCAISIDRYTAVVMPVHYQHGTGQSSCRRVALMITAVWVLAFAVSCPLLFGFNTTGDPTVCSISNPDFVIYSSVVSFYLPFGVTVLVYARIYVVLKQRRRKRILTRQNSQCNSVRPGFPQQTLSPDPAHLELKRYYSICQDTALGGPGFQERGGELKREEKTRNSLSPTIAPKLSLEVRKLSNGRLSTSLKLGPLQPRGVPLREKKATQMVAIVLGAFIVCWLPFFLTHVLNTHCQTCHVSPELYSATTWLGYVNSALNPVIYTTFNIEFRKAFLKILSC
T3 sequence (P14416 whole entry): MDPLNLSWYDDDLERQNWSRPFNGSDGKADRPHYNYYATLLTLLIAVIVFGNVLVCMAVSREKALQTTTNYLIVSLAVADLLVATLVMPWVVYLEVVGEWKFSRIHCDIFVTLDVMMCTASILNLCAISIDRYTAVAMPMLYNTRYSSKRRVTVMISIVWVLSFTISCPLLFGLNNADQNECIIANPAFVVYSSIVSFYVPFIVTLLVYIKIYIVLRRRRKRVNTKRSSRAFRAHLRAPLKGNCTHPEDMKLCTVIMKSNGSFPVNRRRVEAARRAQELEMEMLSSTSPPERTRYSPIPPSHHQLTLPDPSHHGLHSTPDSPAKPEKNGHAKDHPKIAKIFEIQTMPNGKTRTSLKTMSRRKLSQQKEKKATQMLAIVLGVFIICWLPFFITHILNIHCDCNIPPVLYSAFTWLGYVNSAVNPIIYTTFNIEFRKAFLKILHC
T1 sequence (P31645 whole entry): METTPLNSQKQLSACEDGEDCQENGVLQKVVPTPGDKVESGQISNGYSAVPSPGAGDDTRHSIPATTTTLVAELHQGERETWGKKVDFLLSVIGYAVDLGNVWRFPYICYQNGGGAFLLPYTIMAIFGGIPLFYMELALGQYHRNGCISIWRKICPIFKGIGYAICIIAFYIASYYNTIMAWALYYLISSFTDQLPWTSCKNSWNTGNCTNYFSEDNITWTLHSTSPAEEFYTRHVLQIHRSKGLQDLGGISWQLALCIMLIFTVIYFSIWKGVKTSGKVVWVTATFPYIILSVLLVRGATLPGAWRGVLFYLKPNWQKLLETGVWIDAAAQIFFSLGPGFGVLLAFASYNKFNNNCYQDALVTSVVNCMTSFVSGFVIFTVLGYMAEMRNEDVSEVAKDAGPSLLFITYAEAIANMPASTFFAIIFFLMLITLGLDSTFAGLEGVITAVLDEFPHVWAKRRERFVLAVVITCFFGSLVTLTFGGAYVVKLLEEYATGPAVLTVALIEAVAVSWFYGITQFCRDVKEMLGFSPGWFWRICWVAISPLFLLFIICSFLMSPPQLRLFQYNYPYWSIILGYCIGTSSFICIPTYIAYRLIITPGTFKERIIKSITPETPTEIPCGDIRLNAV

| Structure (SMILES) | IC50 (human 5HT transporter) [nM] | IC50 [1] [nM] | IC50 [2] [nM] | IC50 (Human 5HT1A receptor) [nM] | pIC50 5HTT (human 5HT transporter) | pIC50 D3 [1] | pIC50 D2 [2] | pIC50 5-HT1A (Human 5HT1A receptor) |
| --- | --- | --- | --- | --- | --- | --- | --- | --- |
| COc1cc2c(cc1OC)C1=NOC(CN3CC=C(c4c[nH]c5ccc(F)cc45)CC3)C1CO2 (racemic) [Compound 1] | 15.8 | 126 | 398 | 31.6 |  |  |  |  |
| COc1cc2c(cc1OC)C1=NOC(CN3CCC(c4c[nH]c5ccc(F)cc45)CC3)C1CO2 (racemic) [Compound 2] |  |  |  |  | 7.4 | 7.2 | 7.2 | 8.8 |
| COc1ccc2[nH]cc(C3=CCN(CC4ON=C5c6cc(OC)c(OC)cc6OCC54)CC3)c2c1 (racemic) [Compound 7] |  |  |  |  | 6.4 | <6 | <6 | 8.1 |
| COc1cc2c(cc1OC)C1=NOC(CN3CC=C(c4c[nH]c5cccc(F)c45)CC3)C1CO2 (racemic) [Compound 9] |  |  |  |  | 7.5 | 6.6 | 6.1 | 8.2 |
| COc1cc2c(cc1OC)C1=NOC(CN3CC=C(c4c[nH]c5ccc(Br)cc45)CC3)C1CO2 (racemic) [Compound 10] |  |  |  |  | 6.7 | 6.5 | 6.3 | 8.3 |
| COc1cc2c(cc1OC)C1=NOC(CN3CCC(c4c[nH]c5cccc(F)c45)CC3)C1CO2 (racemic) [Compound 17] |  |  |  |  | 7.6 | 6.3 | 6.9 | 8.2 |
| COc1cc2c(cc1OC)C1=NOC(CN3CC=C(c4c[nH]c5ccc(C)cc45)CC3)C1CO2 (racemic) [Compound 18] |  |  |  |  | 7.0 | 6.4 | 6.4 | 8.2 |
| COc1cc2c(cc1OC)C1=NOC(CN3CC=C(c4c[nH]c5ccc([N+](=O)[O-])cc45)CC3)C1CO2 (racemic) [Compound 19] |  |  |  |  | 7.1 | 6.5 | 6.1 | 8.1 |
| COc1cc2c(cc1OC)C1=NOC(CN3CCC(c4c[nH]c5ccc(N)cc45)CC3)C1CO2 (racemic) [Compound 20] |  |  |  |  | 5.4 | <6 | 6.2 | 7.6 |
| COc1cc2c(cc1OC)C1=NOC(CN3CC=C(c4c[nH]c5ccc(O)cc45)CC3)C1CO2 (racemic) [Compound 21] | 39.8 | 158 | 631 | 12.6 |  |  |  |  |
| COc1cc2c(cc1OC)C1=NOC(CN3CC=C(c4c[nH]c5ccc(-c6ccccc6)cc45)CC3)C1CO2 (racemic) [Compound 22] | 2510 | 3160 | 3980 | 25.1 |  |  |  |  |
| COc1cc2c(cc1OC)C1=NOC(CN3CC=C(c4c[nH]c5ccc(C#N)cc45)CC3)C1CO2 (racemic) [Compound 23] |  |  |  |  | 7.4 | 6.8 | 6.1 | 8.2 |
| COc1cc2c(cc1OC)C1=NOC(CN3CCC(c4c[nH]c5ccc(C#N)cc45)CC3)C1CO2 (racemic) [Compound 24] |  |  |  |  | 7.4 | 6.9 | 6.4 | 8.7 |
| COc1cc2c(cc1OC)C1=NOC(CN3CC=C(c4c[nH]c5ccc(Cl)cc45)CC3)C1CO2 (racemic) [Compound 25] |  |  |  |  | 7.1 | 6.9 | 6.6 | 8.3 |
| COc1cc2c(cc1OC)C1=NOC(CN3CCC(c4c[nH]c5cc(F)ccc45)CC3)C1CO2 (racemic) [Compound 26] |  |  |  |  | 7.6 | 6.7 | 7.9 | 8.2 |
| COc1cc2c(cc1OC)C1=NOC(CN3CC=C(c4c[nH]c5cc(F)ccc45)CC3)C1CO2 (racemic) [Compound 27] |  |  |  |  | 7.6 | 6.4 | 6.9 | 7.2 |
| COc1cc2c(cc1OC)C1=NOC(CN3CCC(c4c[nH]c5c(F)cccc45)CC3)C1CO2 (racemic) [Compound 30] |  |  |  |  | 6.5 | 6.4 | 6.0 | 7.4 |
| COc1cc2c(cc1OC)C1=NOC(CN3CCC(c4c[nH]c5ccc(C)cc45)CC3)C1CO2 (racemic) [Compound 31] | 200 | 398 | 398 | 3.16 |  |  |  |  |
| COc1cc2c(cc1OC)C1=NOC(CN3CCC(c4c[nH]c5ccc(Cl)cc45)CC3)C1CO2 (racemic) [Compound 32] |  |  |  |  | 7.4 | 6.6 | 6.8 | 8.5 |
| COc1cc2c(cc1OC)C1=NOC(CN3CC=C(c4c[nH]c5ccc(F)cc45)CC3)C1CO2 (single isomer, unassigned) [Compound 3] |  |  |  |  | 7.4 | 7.0 | 6.0 | 6.8 |
| COCCOCOc1ccc2[nH]cc(C3=CCN(CC4ON=C5c6cc(OC)c(OC)cc6OCC54)CC3)c2c1 (centres unmarked) [Compound 62] | > 10000 |  | > 10000 | 63.1 |  |  |  |  |
